Test results: ChEMBL document CHEMBL1140953, “Anthracene based compounds as new L-type Ca2+ channel blockers: design, synthesis, and full biological profile” (J Med Chem, 2009)
Active and inactive are the calls of the source. The calls are words filed in the database; no cut-off is given here.

Legend:
Rattus norvegicus [1] = species: Rattus norvegicus; assay: Vasorelaxant activity in Sprague-Dawley rat caudal artery ring assessed as reduction of caffeine-induced muscle contractions at 50 uM; type: functional, tissue-based
Rattus norvegicus [2] = species: Rattus norvegicus; assay: Vasorelaxant activity in Sprague-Dawley rat caudal artery ring assessed as reduction of phenylephrine-induced muscle contractions at 50 uM in Ca2+-free physiological salt solution; type: functional, tissue-based
[3] = Vasorelaxant activity in Sprague-Dawley rat caudal artery ring assessed as reduction of KCl-induced muscle contractions at 50 uM relative to control; type: functional; set-up: scale not given: the % may be the effect or the level left
Rattus norvegicus [4] = species: Rattus norvegicus; assay: Vasorelaxant activity in Sprague-Dawley rat caudal artery ring assessed as reduction of caffeine-induced muscle contractions at 50 uM in Ca2+-free physiological salt solution; type: functional, tissue-based
[5] = target: T1, Voltage-gated L-type calcium channel (Rattus norvegicus, UniProt P22002+Q02485+P27732); assay: Inhibition of L-type calcium channel in Sprague-Dawley rat caudal artery smooth muscle cells at 15 uM by whole cell patch clamp method at 4 Hz
[6] = target: T1, Voltage-gated L-type calcium channel; assay: Inhibition of L-type calcium channel in Sprague-Dawley rat caudal artery smooth muscle cells assessed as inhibition of peak inward current at 15 uM by whole cell patch clamp method at -20 to 40 mV voltage
[7] = (§1) Displacement of (-)-[3H]devapamil from L-type calcium channel in rabbit skeletal muscle cells; set-up: species or system Oryctolagus cuniculus
[8] = target: Voltage-dependent L-type calcium channel subunit alpha-1C (Mus musculus, UniProt Q01815); assay: Inhibition of mouse brain L-type Cav1.2 channel by radioligand binding assay
[9] = target: T1, Voltage-gated L-type calcium channel; assay: Inhibition of L-type calcium channel in Sprague-Dawley rat caudal artery smooth muscle cells at 15 uM by whole cell patch clamp method at -50 mV voltage
[10] = target: T1, Voltage-gated L-type calcium channel; assay: Inhibition of L-type calcium channel in Sprague-Dawley rat caudal artery smooth muscle cells assessed as decrease in amplitude at 15 uM by whole cell patch clamp method; details: TDE = time-dependent effect
[11] = target: T1, Voltage-gated L-type calcium channel; assay: Inhibition of L-type calcium channel in Sprague-Dawley rat caudal artery smooth muscle cells by whole cell patch clamp method
[12] = target: T1, Voltage-gated L-type calcium channel; assay: Inhibition of L-type calcium channel in Sprague-Dawley rat caudal artery smooth muscle cells at 15 uM by whole cell patch clamp method at 2 Hz
[13] = Displacement of (+)-[3H]isradipine from L-type calcium channel in rabbit skeletal muscle cells; set-up: species or system Oryctolagus cuniculus
[14] = Displacement of (-)-[3H]devapamil from L-type calcium channel in rabbit smooth skeletal cells relative to verapamil
Oryctolagus cuniculus = species: Oryctolagus cuniculus; assay: as §1; details: concentration not given here

Chain of Voltage-dependent L-type calcium channel subunit alpha-1C (Q01815 whole entry): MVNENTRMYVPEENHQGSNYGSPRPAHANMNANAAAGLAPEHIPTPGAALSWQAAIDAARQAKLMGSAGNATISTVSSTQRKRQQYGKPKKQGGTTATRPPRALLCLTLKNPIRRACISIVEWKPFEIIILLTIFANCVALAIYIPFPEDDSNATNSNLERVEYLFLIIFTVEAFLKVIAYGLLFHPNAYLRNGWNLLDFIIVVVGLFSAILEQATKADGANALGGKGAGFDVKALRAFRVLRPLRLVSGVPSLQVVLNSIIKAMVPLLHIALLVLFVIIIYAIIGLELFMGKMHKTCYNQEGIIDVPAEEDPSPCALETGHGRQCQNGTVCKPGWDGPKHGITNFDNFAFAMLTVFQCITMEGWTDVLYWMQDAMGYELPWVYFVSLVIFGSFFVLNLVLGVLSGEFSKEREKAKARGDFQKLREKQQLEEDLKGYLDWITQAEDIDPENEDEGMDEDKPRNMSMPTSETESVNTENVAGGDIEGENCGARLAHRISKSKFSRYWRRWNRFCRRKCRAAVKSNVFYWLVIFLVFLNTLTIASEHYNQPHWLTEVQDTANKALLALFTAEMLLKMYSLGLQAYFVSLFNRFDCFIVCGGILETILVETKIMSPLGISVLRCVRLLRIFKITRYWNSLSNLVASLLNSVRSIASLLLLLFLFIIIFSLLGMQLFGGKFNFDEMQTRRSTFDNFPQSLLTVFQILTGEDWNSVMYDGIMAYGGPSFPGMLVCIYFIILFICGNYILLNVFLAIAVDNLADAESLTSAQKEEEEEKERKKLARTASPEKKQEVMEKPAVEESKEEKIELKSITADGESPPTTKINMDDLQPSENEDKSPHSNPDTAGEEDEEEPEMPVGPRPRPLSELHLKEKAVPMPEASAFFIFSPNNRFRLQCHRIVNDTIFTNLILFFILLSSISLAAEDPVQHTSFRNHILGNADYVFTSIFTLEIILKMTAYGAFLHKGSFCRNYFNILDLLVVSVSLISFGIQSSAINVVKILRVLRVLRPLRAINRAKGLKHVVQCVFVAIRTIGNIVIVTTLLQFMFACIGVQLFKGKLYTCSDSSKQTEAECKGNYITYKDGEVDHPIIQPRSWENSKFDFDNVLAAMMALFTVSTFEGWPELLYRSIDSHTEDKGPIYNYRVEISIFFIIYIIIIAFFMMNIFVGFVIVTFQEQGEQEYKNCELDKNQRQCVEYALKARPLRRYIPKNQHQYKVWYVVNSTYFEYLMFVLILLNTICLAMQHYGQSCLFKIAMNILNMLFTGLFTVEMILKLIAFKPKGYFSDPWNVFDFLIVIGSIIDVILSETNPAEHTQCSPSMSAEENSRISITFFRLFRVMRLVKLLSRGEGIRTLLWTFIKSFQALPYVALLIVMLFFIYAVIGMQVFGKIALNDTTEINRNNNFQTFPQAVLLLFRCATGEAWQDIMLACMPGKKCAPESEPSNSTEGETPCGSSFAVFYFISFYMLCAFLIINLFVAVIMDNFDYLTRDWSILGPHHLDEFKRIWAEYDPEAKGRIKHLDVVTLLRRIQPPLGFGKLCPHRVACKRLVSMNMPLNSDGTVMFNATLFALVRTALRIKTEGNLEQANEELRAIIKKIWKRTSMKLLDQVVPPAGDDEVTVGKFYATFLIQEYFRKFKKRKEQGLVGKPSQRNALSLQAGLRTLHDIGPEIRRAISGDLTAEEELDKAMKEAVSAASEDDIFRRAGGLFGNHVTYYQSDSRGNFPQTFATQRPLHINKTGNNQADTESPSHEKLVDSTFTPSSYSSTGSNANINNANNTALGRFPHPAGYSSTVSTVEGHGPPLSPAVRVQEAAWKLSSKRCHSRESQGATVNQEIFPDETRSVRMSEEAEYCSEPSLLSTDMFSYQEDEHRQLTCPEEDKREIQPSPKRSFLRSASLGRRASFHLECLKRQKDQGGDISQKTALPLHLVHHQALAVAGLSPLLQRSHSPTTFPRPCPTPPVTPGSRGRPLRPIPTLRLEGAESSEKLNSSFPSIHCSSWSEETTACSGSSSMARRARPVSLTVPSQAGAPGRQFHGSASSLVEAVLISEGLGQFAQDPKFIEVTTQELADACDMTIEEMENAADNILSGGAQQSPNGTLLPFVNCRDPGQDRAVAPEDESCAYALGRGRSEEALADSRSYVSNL

Row | SMILES | Activity (Rattus norvegicus [1]) | Activity (Rattus norvegicus [2]) | further results
1 | CC12c3ccccc3C(c3ccccc31)C1C(=O)NC(=O)C12 (configuration not stated) | Active | Active | 
2 | O=CC12c3ccccc3C(c3ccccc31)C1C(=O)NC(=O)C12 (configuration not stated) | Active | Active | 
3 | N#CC12c3ccccc3C(c3ccccc31)C1C(=O)NC(=O)C12 (configuration not stated) | Active | Active | 
4 | O=C1NC(=O)C2C1C1c3ccccc3C2(CO)c2ccccc21 (configuration not stated) | Active | Active | 
5 | C#CCN1C(=O)C2C3c4ccccc4C(c4ccccc43)C2C1=O (configuration not stated) | Active | Active | 
6 | O=C1NC(=O)C2C3c4ccccc4C(c4cccc(Cl)c43)C12 (configuration not stated) | Active | Active | Activity [3]: 90%
7 | O=C1NC(=O)C2C3c4ccccc4C(c4ccccc43)C12 (configuration not stated) | Active | Active | 
8 | Cc1ccc2c(c1)C1c3ccccc3C2C2C(=O)NC(=O)C12 (configuration not stated) | Active | Active | Activity [3]: 90%
9 | O=C1NC(=O)C2C3c4ccccc4C(c4ccc(Cl)cc43)C12 (configuration not stated) |  | inactive | Activity (Rattus norvegicus [4]): inactive; Activity [5]: Active; Activity [6]: Active; Activity [3]: 100%; IC50 [7]: 5.6 µM; IC50 [8]: 19.4 µM; Activity [9]: Active; Activity [10]: tde; IC50 [11]: 16.5 µM; Activity ([11]; rat): Dose-dependent effect; Activity [12]: Active; IC50 [13]: 6.3 µM
10 | COc1ccc(CCN(C)CCCC(C#N)(c2ccc(OC)c(OC)c2)C(C)C)cc1OC (configuration not stated) [VERAPAMIL] |  |  | IC50 [14]: 0.0602 µM; inhibition (Oryctolagus cuniculus): 100%
11 | O=C1NC(=O)C2C1C1c3ccccc3C2([N+](=O)[O-])c2ccccc21 (configuration not stated) | Active | Active | 
12 | O=C1NC(=O)C2C1C1c3ccccc3C2(Cl)c2ccccc21 (configuration not stated) | Active | Active | 
